Results taken from patent US20200390767A1, “Formulations of 4-(7-Hydroxy-2-isopropyl-4-oxo-4H-quinazolin-3-yl)-benzonitrile” (NOVARTIS AG, priority 2019, published 2020).
Values after ≈ are worked out from the molar mass of the structure shown. Read-outs that look alike come from different tables or passages of the source.

How the values were obtained:
[1] = PRK clinical study, residual compound I in bandage contact lens; assay type: in vivo, human; conditions: Day 4; for concentration at 4 day: human, bandage contact lens extract, topical, 0.925 mg, 0.55 mL extraction fluid
Method: Compound I was quantified in plasma using a validated LC-MS/MS method; the lower limit of quantification (LLOQ) was 0.05 ng/mL. Concentrations were expressed in ng per mL units. When feasible, bandage contact lenses (BCL) exposed to study drug were collected and analyzed for residual drug exposure after treatment (LLOQ: 5.00 ng/mL in 0.55 mL of extraction fluid, or 2.75 ng/BCL). Concentrations below the LLOQ were reported as “zero” and missing data were labeled as such.
Bandage Contact Lens (BCL) was collected from 40 patients on Day 4 of the dose administration and analyzed for compound I. Values from the three IMP non-compliant patients were excluded from BCL summary statistics, leaving 37 values evaluable, including one value from a patient without available plasma PK. The mean concentration of compound I (CV %) in 0.55 mL extraction fluid was 8500 ng/mL (73.1%), with a wide range of 284 to 22600 ng/mL. These concentrations translate to an estimated mean of 4680 ng/lens (0.55 mL×8500 ng/mL), and a range of 156 to 12400 ng/lens. The amount in BCL was very small in relation to the 0.925 mg dose of compound I administered: mean 0.51%, and range of 0.017% to 1.3% of dose.

[2] = system: healthy volunteers; assay: First in human study, safety (SAD and MAD adverse events); assay type: in vivo; conditions: 8 times daily for 7 days
Method: This example describes a first-in-human study of compound I conducted in healthy volunteers. A total of 54 subjects were administered to study medication. Part 1 of the first in human study administered single ascending doses of 0.15%, 1.5%, 2.5% w/v (1 drop) of compound I in an eye drop.
Part 2 tested multiple ascending doses (MAD) of compound I, administering (i) 1 drop of 0.15%, 1.5%, 2.5%, 4 times daily (every 6 hours) for 7 days or (ii) 1 drop of 2.5%, 8 times daily (every 3 hours) for 7 days (supra-therapeutic dose) as eye drops.
Safety assessments: Safety assessments consisted of collecting all adverse events (AEs), serious adverse events (SAEs), including systemic and ocular adverse events, along with their severity and relationship to study drug. Systemic safety assessments included regular monitoring of hematology, blood chemistry and urinalysis performed at study center and regular assessments of physical examination, vital signs (systolic and diastolic blood pressure, pulse rate, and body temperature), ECG, pregnancy and assessments of fertility and hand immersion test at 49° C. during MAD part. Ocular safety assessments included early treatment diabetic retinopathy study (ETDRS) visual acuity, intraocular pressure, slit-lamp biomicroscopy, corneal staining and dilated fundus exam. […]

[3] = system: PRK surgery patients; assay: PRK clinical study, ocular safety assessments and vital signs; assay type: in vivo, human
Excerpt: Adverse events and serious adverse events included an assessment of both systemic and ocular assessments. Systemic safety assessments included regular assessments of height and weight, vital signs, reporting medication errors including misuse/abuse, pregnancy reporting and early phase safety monitoring. The misuse/abuse, pregnancy reporting and early phase safety monitoring were not assessed for the study. Ocular safety assessments included the following: • Best-corrected visual acuity (BCVA) and uncorrected visual acuity (UCVA): Was measured at each visit using an ETDRS visual acuity chart at 4 meters (13 feet) or 1 meter (for patients that cannot read the 4 meter chart). The BCVA scoring was done based on the number of correctly read letters plus 30. If visual acuity was so poor that the patient could not read any of the largest letters at 1 meter, count fingers and hand movement vision and light perception was tested. • Intraocular Pressure (TOP): IOP measurements were conducted with applanation tonometry or Tonopen. • Dilated fundus exam: The dilated fundus examination included ophthalmoscopic assessments of the vitreous, retina/macula/choroid, and optic nerve. Evaluations for retinal tear/detachment, retinal hemorrhage, vitreous hemorrhage density, vitreous haze grading and abnormal findings were done and scored according to grading criteria. • Ocular hyperemia: Conjunctival redness of the bulbar conjunctiva in each eye at the slit lamp according to the McMonnies redness scale was graded. […] By adjusting the calibrated slit beam width and height, the maximum horizontal (wound width) and vertical dimensions (wound height) of the surgical epithelial wound was estimated. The evaluation was performed until wound closure and report of wound size as 0 horizontal and 0 vertical dimensions. • Slit-lamp biomicroscopy: Ocular signs (eyelids/conjunctiva, cornea, lens, and iris/anterior chamber) was assessed in both eyes by slit lamp biomicroscopy according to the grading criteria. • Blink rate: A blink was defined as a bilateral paroxysmal closure of the eyelids (duration <1 second) in the absence of a provoking external stimulus. Each blink assessment lasted for 2 min (or as close to 2 minutes as possible with minimum time 1 minute) and the obtained blink rate was averaged to calculate blink rate in blinks/min. • Tear production (Schirmer's test without anesthesia): The test was performed without anesthetic in both eyes simultaneously. Tear secretion was measured in millimeters of the length of strip wetted by tears. […] The strip was wetted with 1 drop of sterile saline and flicked to remove excess saline. The patient blinked several times to ensure dispersion of the dye throughout the tear film prior to grading on a scale of 0-3 (0=Normal, No staining; 1=Mild, Superficial stippling micropunctate staining; 2=Moderate, Macropunctate staining with some coalescent areas and 3=Severe, Numerous coalescent macropunctate areas and/or patches) for each of 5 zones (central plus 4 quadrants).

[4] = Solubility of compound I in solvents; assay type: physicochemical
Excerpt: As noted above, compound I is sparingly soluble in various media.

[5] = across the scheduled time points

CC(C)c1nc2cc(O)ccc2c(=O)n1-c1ccc(C#N)cc1 [Compound I, 4-(7-hydroxy-2-isopropyl-4-oxo-4H-quinazolin-3-yl)-benzonitrile]
amount in BCL in relation to the 0.925 mg dose, mean [1]: 0.51 % of dose
estimated mean amount in bandage contact lens [1]: 4680 ng/lens
concentration at 4 day ([1]; read-out: concentration of compound I in bandage contact lens extract, range): 284 to 22600 ng/mL
concentration at 4 day ([1]; read-out: mean concentration of compound I in bandage contact lens extract): 8500 ng/mL
dose limiting adverse events ([2]; 2.5%): No dose limiting adverse events were identified
Maximum Tolerated Dose (MTD) ([2]; eye drops, healthy volunteers): 2.5%
Ocular hyperemia, grade 4 (McMonnies scale), versus Vehicle ([3]; Day 2 postoperatively (24 hours after PRK surgery), all quadrants): less grade 4 hyperemia
Ocular hyperemia, grade 3 (McMonnies scale), versus Vehicle ([3]; Day 3 (48 hours post-operative)): less grade 3 hyperemia
Dilated fundus exam [3, 5]: No abnormal findings
Slit-lamp biomicroscopy: aqueous flare, inflammatory cell grade, iris/anterior chamber, lens [3, 5]: No abnormalities were observed
Corneal staining versus Vehicle ([3]; baseline, Day 8, EOS visit): No clinical differences were observed
vital sign parameters ([3]; during the study): within the normal range
BCVA and UCVA versus Vehicle ([3]; throughout the study): did not result in any trend or obvious difference
Blink rate versus Vehicle ([3]; throughout the study): no trend across the scheduled time points or obvious differences
Intraocular pressure versus Vehicle ([3]; throughout the study): No trend across the scheduled time points or obvious differences
solubility ([4]; isopropyl myristate, oil or lipid, solvent: Isopropyl Myrisate): 90 µg/mL (≈ 295 µM)
solubility ([4]; oil or lipid, solvent: Medium-Chain Triglycerides (Miglyol 812)): 100 µg/mL (≈ 328 µM)
solubility ([4]; oil or lipid, solvent: Mineral Oil): 30 µg/mL (≈ 98.3 µM)
solubility ([4]; oil or lipid, solvent: Oleyl Alcohol): 120 µg/mL (≈ 393 µM)
solubility ([4]; organic solvent or mixture, solvent: Diisopropyl Adipate): 160 µg/mL (≈ 524 µM)
solubility ([4]; organic solvent or mixture, solvent: Ethanol): 790 µg/mL (≈ 2590 µM)
solubility ([4]; organic solvent or mixture, solvent: Hexylene Glycol): 280 µg/mL (≈ 917 µM)
solubility ([4]; organic solvent or mixture, solvent: Isopropanol): 330 µg/mL (≈ 1080 µM)
solubility ([4]; organic solvent or mixture, solvent: Isosorbide): 340 µg/mL (≈ 1110 µM)
solubility ([4]; organic solvent or mixture, solvent: Polyethylene Glycol 200): 1620 µg/mL (≈ 5310 µM)
solubility ([4]; organic solvent or mixture, solvent: Polyethylene Glycol 300): 2040 µg/mL (≈ 6680 µM)
solubility ([4]; organic solvent or mixture, solvent: Polyethylene Glycol 400): 1660 µg/mL (≈ 5440 µM)
solubility ([4]; organic solvent or mixture, solvent: Propylene Carbonate): 400 µg/mL (≈ 1310 µM)
solubility ([4]; organic solvent or mixture, solvent: Propylene Glycol): 1680 µg/mL (≈ 5500 µM)
solubility ([4]; solvent: Water): 10 µg/mL (≈ 32.8 µM)
